Data reported in patent US10626178B2, “Treatment of mood and stress related disorders” (priority 2013, dated 2020).

What was measured:
[1] = system: DG microglia; experiment: DG microglia number and morphology after unpredictable stress (US/CUS); type: in vivo, mice
Protocol: (§1) Subjects were exposed to chronic unpredictable stress (CUS), consisting of daily exposure to two stressors in a random order over a 5-week period. The effect of a shorter period of unpredictable stress was examined by exposing mice to various combinations of 2-3 of the same stressors over a period of 2 days. The list of CUS stressors included: cage shaking for 1 h with loud music and lights, on, lights on during the entire night (12 h), lights-off for 3 h during the daylight phase, flashing (stroboscopic) light for 6 h, placement in 4° C. cold room for 1 h, mild restraint (in small cages) for 2 h, 45° cage tilt for 14 h, wet cage for 14 h, exposure to fox, ferret, bobcat, or coyote smell for 2 h, noise in the room for 3 h, and water deprivation for 12 h during the dark period.
Animals were perfused trans-cardially with cold PBS followed by 4% paraformaldehyde in 0.1 M PBS, and the brains were quickly removed and placed in 4% paraformaldehyde. After 24 h the brains were placed in 30% sucrose solution in PBS and then frozen in OCT.
In some experiments microglia were visualized using an antibody to the microglia activation marker ionized calcium-binding adapter molecule-1 (Iba-1). Brain sections were first fixed in 2% paraformaldehyde, and after 3 PBS washes they were incubated over-night in 3% normal goat serum in 5% BSA with the primary antibody (rabbit anti Iba-1 1:220, Wako, Japan) at 4° C. Sections were then incubated with the secondary antibody (goat anti rabbit, 1:200; Invitrogen) for 1 hour at RT and counter-stained with DAPI (Sigma, Israel).
(§2) Images were captured using Nikon Eclipse fluorescent microscope and CI Nikon confocal microscope and camera. The number of GFP-labeled microglia (and in some studies the number of BrdU-labeled microglia and other cells), as well and the microglial soma area were automatically measured at ×10 magnification in a defined area exclusively containing the entire Dentate Gyrus or prelimbic cortex, for each slide, using Nikon Imaging Elements Software (NIS-Elements). Microglia processes length was measured by capturing images at 40× magnification and by manual tracing of the processes of 4 randomly selected cells/section their processes using the NIS Elements software.

[2] = system: CUS-exposed mice; experiment: CUS model, overall depressive-like behavior; type: in vivo
Protocol: as §1

[3] = system: CUS-exposed mice; experiment: Porsolt forced swim test; type: in vivo
Protocol: Subjects were exposed to chronic unpredictable stress (CUS), consisting of daily exposure to two stressors in a random order over a 5-week period. […] The list of CUS stressors included: cage shaking for 1 h with loud music and lights, on, lights on during the entire night (12 h), lights-off for 3 h during the daylight phase, flashing (stroboscopic) light for 6 h, placement in 4° C. cold room for 1 h, mild restraint (in small cages) for 2 h, 45° cage tilt for 14 h, wet cage for 14 h, exposure to fox, ferret, bobcat, or coyote smell for 2 h, noise in the room for 3 h, and water deprivation for 12 h during the dark period.
Mice were placed in 20 cm diameter glass cylinder filled to 10 cm with 21° C. water and their behavior was analyzed for five min. The time spent in immobility, defined as the absence of all movement except motions required to maintain the animal's head above the water, and the latency to first immobility episode were recorded using an in-house computerized software.

[4] = system: CUS-exposed mice; experiment: Social exploration test; type: in vivo; details: for social exploration time: 5-weeks CUS-exposed mice treated for 2 additional weeks of CUS
Protocol: as §1, with “dark period. Each subject was placed in an observation cage and allowed to habituate to the cage for 15 min, following which a male juvenile was placed in the cage. Social exploration, defined as the time of near contact between the nose of the subject and the juvenile conspecific, was then recorded for three minutes, using computerized in-house software.” for “dark period.”

[5] = system: CUS-exposed mice; experiment: Sucrose preference test; type: in vivo
Protocol: as §1, with “dark period. Following baseline adaptation to sucrose for several days, animals were presented in the beginning of the dark circadian phase with two graduated drinking tubes, one containing tap water and the other 2% sucrose solution for 3 hr. Sucrose preference was calculated as the percent of sucrose consumption out of the total drinking volume.” for “dark period.”

[6] = system: DG cells; experiment: BrdU labeling of DG cells (neurogenesis / proliferation); type: in vivo, mice; details: M-CSF 100 μg/kg i.p. daily for 5 days
Protocol: BrdU immunofluorescent staining was performed on 8 μm frozen brain sections, fixated in 50% formamide/2×SCC (0.3M NaCl and 0.03 M sodium citrate) for 2 hours at 65° C. After one wash with 2×SCC, sections were incubated in 2 N HCl for 30 minutes at 37° C. Sections were then rinsed in 0.1 M boric acid at pH 8.5 and washed 3 times in PBS, following which they were incubated in 3% normal goat serum in 1% BSA/0.1% Triton for 30 min at room temperature and then incubated with rat monoclonal anti-BrdU antibody (1:200, AbD serotec) for 48 hours at 4° C. […]
as §2

[7] = 5-weeks CUS-exposed mice treated for 2 additional weeks of CUS
[8] = 5-weeks CUS, drug beginning two days before and throughout CUS
[9] = 5-weeks CUS-exposed mice treated for 2 additional weeks of CUS (imipramine, minocycline in drinking water; GM-CSF i.p. 3 time/week)
[10] = CUS-exposed mice, M-CSF 100 μg/kg i.p. daily for 5 days

In the case of “IL-1β: microglia-stimulating cytokine interleukin-1β, given intra-hippocampally”, the “microglia number and morphology” value ([1]; acute intra-hippocampal administration in WT mice) is reported as “mimicked the effects of short-term US on microglia number and morphology”.

In the case of `CN(C)CCCN1c2ccccc2CCc2ccccc21` [imipramine, reference compound], the “effect on established CUS-induced depressive-like behavior” value ([2]; administration to mice with established CUS-induced depressive-like behavior) is reported as “produced minimal beneficial effects”, the floating time [3, 7] is reported as “showed no difference from non-stressed controls” and the social exploration time [4] is reported as “further reductions were evident”. For the same molecule, the social exploration [4, 8] was “prevented the CUS-induced reductions”, the DG microglia number [1, 9] was “no differences from any of the groups” and the hippocampal microglia number [1, 8] was “blocked the CUS-induced decline in hippocampal microglia number”. For the same molecule, the microglia processes length [1, 8] was “blocked the CUS-induced decline”, the microglia soma size [1, 8] was “blocked the CUS-induced decline” and the “number of hippocampal (DG) microglia” value ([1]; 2 days of US exposure, drug via drinking water beginning 2 days before US initiation (minocycline 40, imipramine 20 mg/kg/day)) was “completely reversed the increase in hippocampal microglia”. The sucrose preference [5, 8] was “prevented the CUS-induced reductions in sucrose preference”.

GM-CSF was tested, and the floating time [3, 7] was “showed no difference from non-stressed controls”, the social exploration time [4] was “induced an elevation in the social exploration time” and the DG microglia number [1, 9] was “significantly greater number of microglia as compared with the control CUS-exposed mice”. For the same molecule, the sucrose preference [5, 7] was “completely reversed the suppressive effects of CUS on sucrose preference”.

B1: M-CSF: Macrophage colony-stimulating factor, homodimer glycoprotein; microglia activator (protein, UniProt P09603 33-554, looked up)
Macrophage colony-stimulating …: EEVSEYCSHMIGSGHLQSLQRLIDSQMETSCQITFEFVDQEQLKDPVCYLKKAFLLVQDIMEDTMRFRDNTPNAIAIVQLQELSLRLKSCFTKDYEEHDKACVRTFYETPLQLLEKVKNVFNETKNLLDKDWNIFSKNCNNSFAECSSQDVVTKPDCNCLYPKAIPSSDPASVSPHQPLAPSMAPVAGLTWEDSEGTEGSSLLPGEQPLHTVDPGSAKQRPPRSTCQSFEPPETPVVKDSTIGGSPQPRPSVGAFNPGMEDILDSAMGTNWVPEEASGEASEIPVPQGTELSPSRPGGGSMQTEPARPSNFLSASSPLPASAKGQQPADVTGTALPRVGPVRPTGQDWNHTPQKTDHPSALLRDPPEPGSPRISSLRPQGLSNPSTLSAQPQLSRSHSSGSVLPLGELEGRRSTRDRRSPAEPEGGPASEGAARPLPRFNSVPLTDTGHERQSEGSFSPQLQESVFHLLVPSVILVLLAVGGLLFYRWRRRSHQEPQRADSPLEQPEGSPLTQDDRQVELPV
With B1 the depressive-like behavioral symptoms ([2]; CUS-exposed mice) was “completely reversed the depressive symptoms after a few days of treatment”, the depressive symptoms ([2]; non-stressed mice) was “did not cause depressive symptoms in non-stressed mice” and the floating time [3, 10] was “reversed”. The “latency to first float” value [3, 10] was “did not reach statistical significance”, the social exploration [4, 10] was “completely reversed the suppressive effects of CUS” and the DG microglia number ([1]; control and CUS-exposed mice, M-CSF 100 μg/kg i.p. daily for 5 days) was “overall increase in DG microglia number, completely normalizing microglia number in CUS-exposed mice”. The “generation of new (BrdU-labeled) DG cells that are not microglia” value ([6]; CUS-exposed mice) was “marked increase in the generation of new (BrdU-labeled) DG cells that are not microglia”, the “microglia proliferation (GFP microglia co-labeled for BrdU)” value [6] was “overall increase in microglia proliferation” and the sucrose preference [5, 10] was “completely reversed the suppressive effects of CUS on sucrose preference”.
